According to patent US20230022803A1, “NOVEL CRYSTALLINE FORM OF GPR40 AGONIST” (ILDONG Pharmaceutical Co., Ltd., priority 2021, published 2023):
Converted amounts (≈) assume the structure as drawn. Read-outs that look alike come from different tables or passages of the source.

What was measured:
[1] = Gravimetric vapor sorption (GVS) analysis; assay type: physicochemical
Text: The GVS analysis was made using an IGA Sorp instrument by Hiden Analytical. The instrumental parameters are listed below.
FIG. 6 illustrates the GVS analysis result.

[2] = Visual solubility analysis in 13 solvents; assay type: physicochemical; details: organic solvent or mixture, thermodynamic from solid, read-out: Solubility (S)
Protocol: The solubility of the crystalline form Compound 1 was visually determined in 13 solvents. 5.0±0.2mg of the crystalline form Compound 1 was stirred at 20° C. with increasing volumes of solvents until a clear solution was visually observed.

GPR40 = GPR40 (Homo sapiens, UniProt O14842); assay: Cell-based aequorin assay (agonistic activity); details: method and reference agonist of U.S. 2020/0223833
Sequence of GPR40 (O14842 whole entry, species assumed): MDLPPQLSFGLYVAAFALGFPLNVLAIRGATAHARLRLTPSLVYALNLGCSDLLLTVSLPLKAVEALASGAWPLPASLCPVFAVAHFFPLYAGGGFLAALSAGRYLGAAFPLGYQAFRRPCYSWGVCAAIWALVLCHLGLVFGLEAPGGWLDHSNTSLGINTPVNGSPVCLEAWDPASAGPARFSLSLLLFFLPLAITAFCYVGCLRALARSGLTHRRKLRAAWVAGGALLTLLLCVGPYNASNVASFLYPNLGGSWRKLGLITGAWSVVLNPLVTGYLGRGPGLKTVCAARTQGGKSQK
Protocol: The agonistic activity of the crystalline form of Compound 1 was measured by using the method described in U.S. Patent Application Publication No. 2020/0223833, which is incorporated herein by reference. The agonistic activity of the crystalline form of Compound 1 was higher than 70% of the activity of the reference agonist used in U.S. Patent Application Publication No. 2020/0223833, which falls within the category of the publication.

[3] = Thermal analysis (TGA and DSC); assay type: physicochemical
Text: The crystalline form Compound 1 prepared according to Example 1 was characterized by thermal gravimetric analysis (TGA) and differential scanning calorimetry (DSC). The TGA analysis was made by a TA Q5000 instrument. The DSC analysis was made by a TA Q2000 MDSC instrument. The instrumental parameters used are listed below.
FIGS. 2A and 2B show the results of the TGA and DSC analyses, respectively.

CC#C[C@@H](CC(=O)O)c1ccc(O[C@@H]2CCc3c(-c4ccc(O[C@@H]5CCOC5)nc4)ccc(F)c32)cc1 [Crystalline Form Compound 1, (S)-3-(4-(((R)-7-Fluoro-4-(6-(((R)-tetrahydrofuran-3-yl)oxy)pyridin-3-yl)-2,3-dihydro-1H-inden-1-yl)oxy)phenyl)hex-4-ynoic acid]
2nd adsorption cycle (0-90% RH), adsorbed water ([1]; GVS isotherm, 25 °C, 0-90% RH): 0.135 % w/w | 1st adsorption cycle (50-90% RH), adsorbed water ([1]; GVS isotherm, 25 °C, 50-90% RH): 0.119 % w/w | 1st desorption cycle (90-0% RH), desorbed water ([1]; GVS isotherm, 25 °C, 90-0% RH): 0.127 % w/w | hygroscopic behavior ([1]; GVS, 25 °C): non-hygroscopic | weight gain ([1]; from dryness to 90% RH during the second adsorption cycle): less than 0.2 % w/w | solubility ([2]; 2-Butanone, 20° C.): > 100000 µg/mL | solubility ([2]; 2-Propanol, 20° C.): 5000 to 6000 µg/mL (≈ 9.97 to 12 mM) | solubility ([2]; Acetone, 20° C.): > 100000 µg/mL | solubility ([2]; Acetone/water 90:10, 20° C.): > 100000 µg/mL | solubility ([2]; Acetonitrile, 20° C.): 6000 to 8000 µg/mL (≈ 12 to 16 mM) | solubility ([2]; Dichloromethane, 20° C.): > 100000 µg/mL | solubility ([2]; Ethyl acetate, 20° C.): 50000 to 100000 µg/mL (≈ 99.7 to 199 mM) | solubility ([2]; Methanol, 20° C.): 6000 to 8000 µg/mL (≈ 12 to 16 mM) | solubility ([2]; Methanol/water 90:10, 20° C.): 1000 to 2000 µg/mL (≈ 1.99 to 3.99 mM) | solubility ([2]; Methyl tert-butyl ether, 20° C.): 2000 to 5000 µg/mL (≈ 3.99 to 9.97 mM) | solubility ([2]; Tetrahydrofuran, 20° C.): > 100000 µg/mL | solubility ([2]; Toluene, 20° C.): 10000 to 12000 µg/mL (≈ 19.9 to 23.9 mM) | solubility ([2]; i-Propyl acetate, 20° C.): 17000 to 25000 µg/mL (≈ 33.9 to 49.8 mM) | agonistic activity relative to the activity of the reference agonist (GPR40): higher than 70% | thermal stability ([3]; TGA/DSC, heating rate 10° C./min): relatively high thermal stability | TGA weight loss ([3]; from ambient to 130° C.): 0.13 % w/w
